Experimental findings from patent US20110086834A1, “ALKYNYL ALCOHOLS AS KINASE INHIBITORS” (AMGEN INC., priority 2008, published 2011) are described below.

In one experiment the target is T1, NIK (Homo sapiens, UniProt Q99558).
T1 construct: Both assays utilize a truncated form of NIK containing only the catalytic domain; made in house; host or cells: baculovirus expression system (insect cells implied)
T1 sequence (Q99558 400-655 limits assumed): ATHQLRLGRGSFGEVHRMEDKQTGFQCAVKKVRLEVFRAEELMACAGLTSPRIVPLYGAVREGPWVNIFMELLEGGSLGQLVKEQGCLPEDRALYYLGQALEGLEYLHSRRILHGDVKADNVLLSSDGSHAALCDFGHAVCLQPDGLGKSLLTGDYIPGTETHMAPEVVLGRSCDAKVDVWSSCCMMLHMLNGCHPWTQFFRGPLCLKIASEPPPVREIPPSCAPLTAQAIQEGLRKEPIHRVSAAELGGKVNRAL
Kind of experiment: homogenous time resolved fluorescence (HTRF) assay for NIK Ki measurement. The format is biochemical.
Settings: not given
Molecule `COCCOc1cnc(N)nc1-c1c[nH]c2ccc(C#CC(C)(C)O)cc12` [Example 224, 4-(3-(2-Amino-5-(2-methoxyethoxy)-4-pyrimidinyl)-1H-indol-5-yl)-2-methyl-3-butyn-2-ol] came in with a Ki below 1000 nM.

Still in this experiment, the particulars now being: truncated NIK (catalytic domain only), autophosphorylation; 10 nM enzyme; 20, 100, 200 or 500 μM ATP; room temperature, 2 hours; read-out: Ki activity in the homogenous time resolved fluorescence (HTRF) assay for NIK.
As for `CC(C)(O)C#Cc1ccc2c(c1)N(c1ccnc(N)n1)CC2` [Example 271, 4-(1-(2-Amino-4-pyrimidinyl)-2,3-dihydro-1H-indol-6-yl)-2-methyl-3-butyn-2-ol], the Ki is below 1000 nM.
Take `CC(C)(C#Cc1ccc2c(c1)N(c1nc(N)ncc1Cl)CC2(C)CO)CO` (single isomer, unassigned) [Example 58, 4-((3S*)-1-(2-amino-5-chloro-4-pyrimidinyl)-3-(hydroxymethyl)-3-methyl-2,3-dihydro-1H-indol-6-yl)-2,2-dimethyl-3-Butyn-1-ol]: the Ki is below 1000 nM.
Same read-out and setting: the figure for `CC(O)(C#Cc1ccc2c(c1)N(c1ccnc(N)n1)CC2)c1ccsc1` (centres unmarked) [Example 274, 4-(1-(2-Amino-4-pyrimidinyl)-2,3-dihydro-1H-indol-6-yl)-2-(3-thienyl)-3-butyn-2-ol] is below 1000 nM.
On the same count and under the same terms, as for `CC(O)(C#Cc1ccc2c(c1)N(c1ccnc(N)n1)CC2)C1CCC1` (centres unmarked) [Example 21, 4-(1-(2-aminopyrimidin-4-yl)indolin-6-yl)-2-cyclobutylbut-3-yn-2-ol], the figure is below 1000 nM; as for `CC(C)(C)NC(=O)c1ccc(-c2[nH]c3ccc(C#CC4(O)CCCC4)cc3c2-c2ccnc(N)n2)cc1` [Example 93, 4-(3-(2-aminopyrimidin-4-yl)-5-(2-(1-hydroxycyclopentyl)ethynyl)-1H-indol-2-yl)-N-tert-butylbenzamide], below 1000 nM.
Consider `Nc1ncc(Cl)c(N2CC3(CCOCC3)c3ccc(C#CC4(O)CCCC4)cc32)n1` [Example 205, 1-((1-(2-Amino-5-chloro-4-pyrimidinyl)-1,2,2′,3′,5′,6′-hexahydrospiro[indole-3,4′-pyran]-6-yl)ethynyl)cyclopentanol], for which the Ki is below 1000 nM.
Consider `Cc1cc(C(C)(O)C#Cc2ccc3c(c2)N(c2nc(N)ncc2Cl)CC3(C)C)no1` (centres unmarked) [Example 3, 4-(1-(2-amino-5-chloropyrimidin-4-yl)-3,3-dimethylindolin-6-yl)-2-(5-methylisoxazol-3-yl)but-3-yn-2-ol], for which the Ki was below 1000 nM.
As to `COCCOc1cnc(N)nc1-c1c[nH]c2ccc(C#CC3(O)CCC3)cc12` [Example 225, 1-((3-(2-Amino-5-(2-methoxyethoxy)-4-pyrimidinyl)-1H-indol-5-yl)ethynyl)cyclobutanol], the Ki is below 1000 nM.
Still for that read-out and setting: the figure for `CC(C)(O)C#Cc1ccc2c(c1)N(c1nc(N)ncc1Cl)CC21CCS(=O)(=O)CC1` [Example 217, 4-(1-(2-Amino-5-chloro-4-pyrimidinyl)-1′,1′-dioxido-1,2,2′,3′,5′,6′-hexahydrospiro[indole-3,4′-thiopyran]-6-yl)-2-methyl-3-butyn-2-ol] is below 1000 nM.
As to `COCCN(C)C1CCn2c1c(-c1ccncn1)c1cc(C#CC(C)(O)c3nccs3)ccc12` (centres unmarked) [Example 105, 4-(1-((2-methoxyethyl)(methyl)amino)-9-(pyrimidin-4-yl)-2,3-dihydro-1H-pyrrolo[1,2-a]indol-7-yl)-2-(thiazol-2-yl)but-3-yn-2-ol], the Ki is below 1000 nM.
On the same count and under the same terms, as for `COCCOCC1(C)CN(c2nc(N)nc3[nH]cnc23)c2cc(C#CC3(O)CCCC3)ccc21` (centres unmarked) [Example 73, 1-((1-(2-amino-9H-purin-6-yl)-3-((2-methoxyethoxy)methyl)-3-methyl-2,3-dihydro-1H-indol-6-yl)ethynyl)cyclopentanol], the figure is below 1000 nM; as for `CC(O)(C#Cc1ccc(O[C@H]2CCOC2)c(Nc2nc(N)ncc2Cl)c1)c1nccs1` (some centres unmarked) [Example 155], below 1000 nM; as for `Cc1cc([C@@](C)(O)C#Cc2ccc3c(c2)N(c2nc(N)ncc2Cl)CC3)on1` (single isomer, unassigned) [Example 28], 1000 to 30000 nM.
Take `CC(O)(C#Cc1ccc2[nH]cc(-c3cnco3)c2c1)c1nccs1` (centres unmarked) [Example 106, 4-(3-(oxazol-5-yl)-1H-indol-5-yl)-2-(thiazol-2-yl)but-3-yn-2-ol]: the Ki was below 1000 nM.
In the case of `CNc1nccc(-c2c[nH]c3ccc(C#CC4(O)CCCC4)cc23)n1` [Example 111, 1-(2-(3-(2-(methylamino)pyrimidin-4-yl)-1H-indol-5-yl)ethynyl)cyclopentanol], the Ki is below 1000 nM.
`CC(O)(C#Cc1ccc2c(c1)N(c1nc(N)ncc1Cl)CC2(C)C)C(=O)N1CCCC1` (centres unmarked) [Example 50, 4-(1-(2-amino-5-chloro-4-pyrimidinyl)-3,3-dimethyl-2,3-dihydro-1H-indol-6-yl)-2-methyl-1-oxo-1-(1-pyrrolidinyl)-3-butyn-2-ol]: the Ki was below 1000 nM.
Take `CC(O)(C#Cc1ccc2c(c1)N(c1ccnc(N)n1)CC2)c1ccccc1` (centres unmarked) [Example 267, 4-(1-(2-Amino-4-pyrimidinyl)-2,3-dihydro-1H-indol-6-yl)-2-phenyl-3-butyn-2-ol]: the Ki was below 1000 nM.
Turning to `CC(O)(C#Cc1ccc2c(c1)N(c1nc(N)ncc1Cl)CC2)c1cc(N2CCCCC2)ccn1` (centres unmarked) [Example 10, 4-(1-(2-amino-5-chloropyrimidin-4-yl)indolin-6-yl)-2-(4-(piperidin-1-yl)pyridin-2-yl)but-3-yn-2-ol], the Ki lay in the range of 1000 to 30000 nM.
In the case of `Cc1ccc(C(C)(O)C#Cc2ccc3c(c2)N(c2ccnc(N)n2)CC3)o1` (centres unmarked) [Example 275, 4-(1-(2-Amino-4-pyrimidinyl)-2,3-dihydro-1H-indol-6-yl)-2-(5-methyl-2-furanyl)-3-Butyn-2-ol], the Ki is below 1000 nM.
As for `COCCNC(=O)c1[nH]c2ccc(C#CC3(O)CCCC3)cc2c1-c1ccnc(N)n1` [Example 96, 3-(2-aminopyrimidin-4-yl)-5-(2-(1-hydroxycyclopentyl)ethynyl)-N-(2-methoxyethyl)-1H-indole-2-carboxamide], the inhibition constant Ki is below 1000 nM.
With `Nc1ncc(Cl)c(-c2cn(C(=O)C3CC3)c3ccc(C#CC4(O)CCCC4)cc23)n1` [Example 121, (3-(2-amino-5-chloropyrimidin-4-yl)-5-(2-(1-hydroxycyclopentyl)ethynyl)-1H-indol-1-yl)(cyclopropyl)methanone], the Ki is below 1000 nM.
As to `COc1ccc(C#CC(C)(O)c2cc(C)on2)cc1Nc1nc(N)ncc1Cl` (centres unmarked) [Example 150, 4-(3-(2-Amino-5-chloropyrimidin-4-ylamino)-4-methoxyphenyl)-2-(5-methylisoxazol-3-yl)but-3-yn-2-ol], the Ki was below 1000 nM.
Consider `Cn1c2c(c3cc(C#CC4(O)CCCC4)ccc31)-c1nc(N)ncc1CNC2=O` [Example 245, 2-Amino-1′-((1-hydroxycyclopentyl)ethynyl)-8-methyl-5,8-dihydropyrimido[4′,5′:5,6]azepino[3,4-b]indol-7(6H)-one], for which the inhibitory constant (Ki) was below 1000 nM.
On the same count and under the same terms, the figure for `Cc1cc([C@](C)(O)C#Cc2ccc3c(c2)N(c2nc(N)ncc2Cl)CC32CCOCC2)no1` (single isomer, unassigned) [Example 211] is below 1000 nM.
For `COc1ccc(C#CC2(O)CCCC2)cc1Nc1nc(N)ncc1Cl` [Example 145, 1-((3-((2-amino-5-chloro-4-pyrimidinyl)amino)-4-(methyloxy)-phenyl)ethynyl)-cyclopentanol], the Ki is below 1000 nM.
With `Cc1csc(C(C)(O)C#Cc2ccc3c(c2)N(c2ccnc(N)n2)CC3)n1` (centres unmarked) [Example 287, 4-(1-(2-Amino-4-pyrimidinyl)-2,3-dihydro-1H-indol-6-yl)-2-(4-methyl-1,3-thiazol-2-yl)-3-Butyn-2-ol], the Ki lay within 1000 to 30000 nM.
`CN1Cc2cnc(N)nc2-c2c(n(C)c3ccc(C#CC4(O)CCCC4)cc23)C1=O` [Example 244, 2-Amino-1′-((1-hydroxycyclopentyl)ethynyl)-6,8-dimethyl-5,8-dihydropyrimido[4′,5′:5,6]azepino[3,4-b]indol-7(6H)-one]: the Ki is below 1000 nM.
With `CN1CCC2(CC1)CN(c1nc(N)ncc1Cl)c1cc(C#CC(C)(O)c3nccs3)ccc12` (centres unmarked) [Example 282, 4-(1-(2-Amino-5-chloro-4-pyrimidinyl)-1′-methyl-1,2-dihydrospiro[indole-3,4′-piperidin]-6-yl)-2-(1,3-thiazol-2-yl)-3-butyn-2-ol], the Ki was below 1000 nM.
Same read-out and setting: as for `CCN(CC)C(=O)Cn1cc(-c2nc(N)ncc2Cl)c2cc(C#CC3(O)CCCC3)ccc21` [Example 129, 2-(3-(2-amino-5-chloropyrimidin-4-yl)-5-(2-(1-hydroxycyclopentyl)ethynyl)-1H-indol-1-yl)-N,N-diethylacetamide], the figure is below 1000 nM; as for `CC(O)(C#Cc1ccc2c(c1)N(c1nc(N)ncc1Cl)CC2)c1nc(C#N)cs1` (centres unmarked) [Example 9, 2-(4-(1-(2-amino-5-chloropyrimidin-4-yl)indolin-6-yl)-2-hydroxybut-3-yn-2-yl)thiazole-4-carbonitrile], 1000 to 30000 nM.
`CC(O)(C#Cc1ccc(OC2CCOCC2)c(Nc2nc(N)ncc2Cl)c1)c1nccs1` (centres unmarked) [Example 152, 4-(3-(2-Amino-5-chloropyrimidin-4-ylamino)-4-(tetrahydro-2H-pyran-4-yloxy)phenyl)-2-(thiazol-2-yl)but-3-yn-2-ol]: the Ki is below 1000 nM.
Regarding `CCN(CC)CCn1cc(-c2nc(N)ncc2Cl)c2cc(C#CC3(O)CCCC3)ccc21` [Example 127, 1-(2-(3-(2-amino-5-chloropyrimidin-4-yl)-1-(2-(diethylamino)ethyl)-1H-indol-5-yl)ethynyl)cyclopentanol], the Ki was below 1000 nM.
With `CC(O)(C#Cc1ccc2c(c1)N(c1nc(N)ncc1Cl)CC2)c1ncc(C#N)s1` (centres unmarked) [Example 34, 2-(4-(1-(2-amino-5-chloropyrimidin-4-yl)indolin-6-yl)-2-hydroxybut-3-yn-2-yl)thiazole-5-carbonitrile], the Ki was below 1000 nM.
`CC(O)(C#Cc1ccc2c(c1)N(c1nc(N)ncc1Cl)CC2(C)C)c1ncco1` (centres unmarked) [Example 305, 4-(1-(2-Amino-5-chloro-4-pyrimidinyl)-3,3-dimethyl-2,3-dihydro-1H-indol-6-yl)-2-(1,3-oxazol-2-yl)-3-Butyn-2-ol]: the Ki was below 1000 nM.
